Measurements from patent US9504671B2, “Pharmaceutical compositions of spiro-oxindole compound for topical administration and their use as therapeutic agents” (Xenon Pharmaceuticals Inc., priority 2010, dated 2016).
Read-outs that look alike come from different tables or passages of the source.

Assays:
[1] = solubility studies of COMPOUND A (UV spectrophotometry at 312 nm); format: physicochemical
Excerpt: The spiro-oxindole compound of the invention, particularly, COMPOUND A, is relatively lipophilic and has poor water solubility.
Attempts to improve the solubility of COMPOUND A for use in a topical pharmaceutical composition, preferably as an ointment, were undertaken using a variety of solubilization techniques. The aim was to conduct a thorough investigation of the use of various pharmaceutically acceptable excipients to maximize the solubility of COMPOUND A. A series of solubility studies, which were performed using standard solubility testing techniques, was therefore carried out to identify proper excipient(s) and/or excipient combinations for achieving the target dosage strength for COMPOUND A. The solubility of COMPOUND A in these studies was determined by UV spectrophotometry using COMPOUND A's UV absorbance wavelength at 312 nm.

[2] = system: CFA-induced inflammatory pain model; assay: CFA induced chronic inflammatory pain, von Frey mechanical paw withdrawal threshold; format: in vivo, rats; settings: fourth day, 30 minutes post-dosing
Protocol: In this test, mechanical hyperalgesia is assessed with electronic von Frey filament by means of Electrovonfrey anesthesiometer (Model 2290, IITC Life Science, Woodland Hills, Calif.). Following a full week of acclimatization to the vivarium facility, 150 μL of the “Complete Freund's Adjuvant” (CFA) emulsion (CFA suspended in an oil/saline (1:1) emulsion at a final concentration of 0.5 mg/mL) was injected subcutaneously into the plantar surface of the left hind ankle joint of rats under light isoflurane anaesthesia. Animals were allowed to recover from the anaesthesia and the baseline mechanical nociceptive thresholds of all animals were assessed one week after the administration of CFA. All animals were habituated to the experimental chambers for 20 minutes on the day of the experiment. The animals were then randomly assigned to 5 different test groups including a vehicle control group and 4 pharmaceutical compositions with COMPOUND A at 1%, 2%, 4% and 8% (w/w) groups. After baseline measurements, animals were anaesthetized under isoflurane, shaved at the site of application, and then dosed by application of 50 mg test compositions on the entire ipsilateral hind ankle and foot. Animals were then placed in Plexiglas tubes for 30 minutes to prevent early removal/ingestion of drug. Test compositions were applied twice a day for 3 days. On the fourth day, immediately after application, animals were placed in tubes for 15 minutes and then removed and placed in Plexiglas enclosures for 15 minutes prior to making paw withdrawal measurements. Von Frey withdrawal thresholds were measured as the mean of several independent determinations made within 1-2 minutes of each other on the affected paw of each animal 30 minutes post-dosing. The time point used was previously determined to show the highest analgesic effect for each test composition.
The response thresholds of animals to tactile stimuli were measured using the Model 2290 Electrovonfrey anesthesiometer (IITC Life Science, Woodland Hills, Calif.). Animals were placed in an elevated Plexiglas enclosure set on a mire mesh surface. After 15 minutes of accommodation, a von Frey hair was applied perpendicularly to the plantar surface of the ipsilateral hind paws of the animals with sufficient force, measured in grams, to elicit a crisp response of the paw. The response indicated a withdrawal from the painful stimulus and constituted the efficacy endpoint.

[3] = system: STZ-induced neuropathic pain model; assay: STZ model of diabetic neuropathy, von Frey; format: in vivo, male Sprague-Dawley rats; settings: 4% (w/w) topical composition, 50 mg on left foot, 30 minutes post-dosing, p<0.05
Excerpt: This study evaluates the efficacy of a pharmaceutical composition of the invention in the STZ-induced neuropathic pain model in male Sprague-Dawley rats, following acute dosing, as compared with a 5% (w/v) topical Lidocaine (Xylocaine®) and a 1.16% (w/v) topical Diclofenac (Voltaren®). A rodent model of painful peripheral diabetic neuropathy (PDN) that mimics human condition was created by inducing a diabetic state in the rat through the ablation of the insulin producing pancreatic beta cells. A single streptozotocin (STZ) injection destroys beta cells in rats and produces a diabetic state that over time progresses to painful Peripheral Diabetic Neuropathy (PDN).
Streptozotocin (STZ) was dissolved in citrate buffer (20 mM, pH 4.5) and administered at a dose of 60 mg/Kg, intraperitoneal, to induce pancreatic beta-cell death. Blood glucose level was measured once a week following injection, using the AccuSoft Blood Glucose Monitoring System. […] Hyperalgesia and allodynia, which are signs of diabetic neuropathic pain, were monitored using the von Frey test as described below. Von Frey measurements were recorded from both left and right paws. Only those with significant hyperalgesia as determined by reduced threshold, measured in grams, of paw withdrawal to the von Frey filament were enrolled in the study. […] During this time their health status was closely monitored.
The animals were randomly divided into 4 test groups (n=7 animals/group) including a vehicle control, a 5% (w/v) Lidocaine (Xylocaine®), a 1.16% (w/v) Diclofenac (Voltaren®), and a pharmaceutical composition with 4% (w/w) COMPOUND A. After baseline measurement, 50 mg of the test composition was applied on the entire left foot. […] The paw withdrawal thresholds of animals from mechanical tactile stimuli were measured using the Electrovonfrey anesthesiometer (Model 2290, IITC Life Science, Woodland Hills, Calif.). […] The force (g) required to elicit a crisp withdrawal response was recorded before dosing as a baseline measurement, and at 30 minutes post-dosing. […]

[4] = systemic plasma concentration after topical or oral dosing in CCI rats (HPLC/MS/MS); format: in vivo, male Sprague Dawley rats; settings: 8% (w/w) topical vs 25 mg/Kg oral, blood 10-15 minutes after efficacy time points, p<0.0001
Protocol: Blood samples were taken from the same animals immediately after withdrawal threshold measurements using the following procedure at approximately 10-15 minutes after their respective efficacy time points. The rats were bled by jugular vein puncture while under anaesthesia. The time at which each blood sample was drawn, relative to the time of dosing, was recorded. Each blood sample (˜150 μL) was collected into a heparin-coated, labelled microvette tube containing 10 μL of heparin (100 Units) and placed on ice immediately. The blood samples were centrifuged at 4° C. to separate the plasma. The plasma was transferred to labelled tubes and snap-frozen in liquid nitrogen for storage at −80° C. At the time of analysis, the plasma was thawed and extracted using solid phase extraction, and the plasma drug concentration was quantified by HPLC/MS/MS.

solubility ([1]; aqueous solution with pH adjusted to 2, aqueous buffer, pH 2, 7.4 and 12, read-out: solubility on varying the pH of a solution): < 5 µg/mL
solubility ([1]; water, read-out: water solubility): < 5 µg/mL
plasma level in topical dosage group lower than in oral dosage group (fold) [4]: ~20 ×
Structure (SMILES): O=C1N(Cc2ccc(C(F)(F)F)o2)c2ccccc2[C@]12COc1cc3c(cc12)OCO3 [COMPOUND A, (S)-1′-{[5-(trifluoromethyl)furan-2-yl]methyl}spiro[furo[2,3-f][1,3]benzodioxole-7,3′-indol]-2′(1′H)-one]
von Frey mechanical paw withdrawal threshold, percent CFB ([2]; 1% (w/w) topical composition): did not demonstrate an observable increase
von Frey mechanical paw withdrawal threshold, percent CFB ([2]; 2% (w/w) topical composition): statistically significant increases
von Frey mechanical paw withdrawal threshold, percent CFB ([2]; 4% (w/w) topical composition): statistically significant increases
von Frey mechanical paw withdrawal threshold, percent change from baseline (CFB) ([2]; 8% (w/w) topical composition, 50 mg twice a day for 3 days): +45.1%
von Frey mechanical paw withdrawal threshold, percent CFB ([2]; 8% (w/w) topical composition): statistically significant increases
paw withdrawal threshold of treated paw, percent mean change from baseline (CFB) [3]: 44.9%
